The values below come from patent publication US5792635A, “Method of inhibiting the sodium/proton exchanger NHE3 and method of inhibiting growth by administering squalamine” (priority 1995, dated 1998).

Data set [1] has as its system vitelline capillaries of 3- to 5-day chick embryo. The experiment in a line: Chick embryo vitelline capillary regression assay. In kind it is in vivo. The settings on record: chick embryo capillary bed. The protocol: Using the chick embryo vitelline capillaries assay, compounds were tested for their ability to induce capillary regression. Each compound was applied in 0.1 ml of 15% Ficol 400 and PBS onto the embryo, and vascular regression was assessed after 60 minutes.
The 3-day chick embryo consists of an embryonic disc from which numerous vessels emerge and return, forming a "figure 8"-shaped structure--the embryo in the center with vascular loops extending outward over both poles. […] Following a lag period of around 15 minutes, the constriction of continuity between capillary and secondary vessels, generally on the "venous" side, was observed. Continued pulsatile blood flow progressed, resulting in a "swelling" of the blind tube, followed by a pinching off of the remaining connection and formation of an enclosed vascular sac resembling a "blood island." This process progressed until only the largest vessels remained intact.

For data set [2], the system named is human melanoma. The experiment in a line: Effect on growth of human melanoma, time course (FIG. 17). In kind it is cell-based.
Data set [3] concerns NHE5. The experiment in a line: NHE isoform selectivity inferred from tadpole and chick embryo assays.
For data set [4], the system named is LLC. As to the kind of experiment: LLC MTT assay (Table II). In kind it is cell-based. The settings on record: Lewis lung carcinoma, read-out: Minimum Effective Concentration, LLC MTT.
For data set [5], the system named is Xenopus tadpoles. The experiment in a line: Tadpole assay.
For data set [6], the system named is Human ovarian carcinoma SKOV3. As to the kind of experiment: Cancer cells inhibited in vitro. It counts as cell-based. Particulars: 10 μg/ml. The protocol:
(§1) As set forth in Table 7 below, all malignant tumors evaluated in tissue culture, endothelial cells and vascular smooth muscle cells were sensitive to inhibition. Thus, compound 1436 has application in the control of growth factor dependent proliferation of many types of tissue.
Using the assay described above, the anticancer effects of compound 1437 against several cancer lines was assessed.

Data set [7] in a line: Effect on fasting blood glucose in mice. The settings on record: intravenous; 1436 in D5W, 1437 in water. It counts as in vivo, mouse (CD-1). As for the experimental part: To study the effect of steroid administrator or the NHE responsible for secretion of insulin, several of the aminosterols from shark liver were administered to fasting mice. Male CD-1 mice were assigned to one of four treatment groups. Whole blood glucose was tested using glucometer (Lifescan Glucometer II and One Touch test strips). Statistical analysis was via one-way analysis of variance (ANOVA) followed by subsequent Bonferonni's t-test.

Data set [8] is described as follows: Effect on growth and weight gain of growing mice. In kind it is in vivo, mouse (C57B). As for the experimental part:
Animals were dosed QTD (i.p.) starting on Day 1. […] Animals receiving 5 mg/kg QTD experienced about a 50% reduction in growth, compared to untreated controls, while animals receiving 1 mg/kg QTD were affected by about 10%. […] They appeared very much like hypophysectamized animals might appear.

Data set [9] deals with bovine pulmonary endothelial cells. As to the kind of experiment: Non-transformed cells inhibited in vitro. It counts as cell-based. The settings on record: 10 μg/ml.
Source text: as §1

For data set [10], the system named is human umbilical venous endothelial cells. As to the kind of experiment: Non-transformed cells inhibited in vitro. It counts as cell-based. The settings on record: 10 μg/ml.
Source text: as §1

In data set [11] the test system is Human coronary artery smooth muscle cells. The experiment in a line: Non-transformed cells inhibited in vitro. In kind it is cell-based. Particulars: 10 μg/ml.
Source text: as §1

The test system of data set [12] is Human microvascular endothelial cells. The experiment in a line: Non-transformed cells inhibited in vitro. Particulars: 10 μg/ml. In kind it is cell-based.
Source text: as §1

In data set [13] the test system is L1210 lymphoblastic leukemia cells. As to the kind of experiment: Mouse model of leukemia (L1210), survival and hematological profile. Particulars: highest dose (10 mg/kg every 3 days i.p.); FIG. 11.
Source text: C57B mice were inoculated with L1210 lymphoblastic leukemia cells at an inoculum that causes leukemia in 100% of animals.
For data set [14], the system named is B16 melanoma. The experiment in a line: Synergistic inhibition of tumor growth, B16 melanoma in mice. It counts as in vivo, mouse. Particulars: squalamine 15 mg/kg/day; compound 1436 tolerable schedule. The protocol:
Based on the idea that tumor growth involves both the clonal expansion of a malignant cell along with the development of a supporting vascular supply, a combination of compound 1436 with squalamine was tested to determine whether it would achieve a synergistic effect on solid tumor growth. This concept was evaluated in the B16 melanoma model.
Animals were implanted with B16 melanoma followed by treatment with compound 1436 or 1256 administered in a combined schedule or separately. […] Thus, a combination of these two compounds achieves a therapeutic benefit in tumors dependent on neovascularization that may prevent metastatic spread.

Data set [15] deals with Human melanoma WM 1617. As to the kind of experiment: Cancer cells inhibited in vitro. The settings on record: 10 μg/ml. It counts as cell-based.
Source text: as §1

Data set [16] concerns Murine L1210 leukemia. The experiment in a line: Cancer cells inhibited in vitro. It counts as cell-based. Particulars: 10 μg/ml.
Source text: as §1

Data set [17] has as its system Lewis lung carcinoma. As to the kind of experiment: Cancer cells inhibited in vitro. The settings on record: 10 μg/ml. In kind it is cell-based.
Source text: as §1

For data set [18], the system named is Human colon carcinoma HT29. The experiment in a line: Cancer cells inhibited in vitro. In kind it is cell-based. Particulars: 10 μg/ml.
Source text: as §1

For data set [19], the system named is Human colon carcinoma SW948. As to the kind of experiment: Cancer cells inhibited in vitro. In kind it is cell-based. The settings on record: 10 μg/ml.
Source text: as §1

Data set [20] has as its system Murine B16 melanoma. The experiment in a line: Cancer cells inhibited in vitro. It counts as cell-based. Particulars: 10 μg/ml.
Source text: as §1

Data set [21] has as its system human T-cells. As to the kind of experiment: Inhibition of PHA-stimulated human lymphocytes. The settings on record: Homo sapiens, T-cell; 10 μg/ml; read-out: inhibition of blast transformation. It counts as cell-based. An excerpt:
Results are tabulated below.

The nature of data set [22]: Effect on arterial resistance in the rat after i.v. administration. In kind it is in vivo. As for the experimental part: A 200-g rat was catheterized in the right carotid artery, and the compound was introduced over a ten-second period to a total dosage of 5 mg/kg. Within 30 seconds, the mean arterial pressure had fallen from about 100 mm Hg to about 70 mm Hg, with a marked reduction in pulse pressure from about 40 mm to about 10 mm. […] If cardiac output was basically unaffected, reduction in blood pressure would have resulted principally from a reduction in system resistance.
At that time, 40 μg of noradrenaline was introduced.

Data set [23] deals with human coronary artery smooth muscle. As to the kind of experiment: Proliferation of human coronary artery smooth muscle in vitro. It counts as cell-based. The settings on record: FIG. 15. An excerpt: Aminosterols of the invention may also have utility in inhibiting the growth factor mediated proliferation of smooth muscle within the artery. Following coronary angioplasty, reocclusion commonly occurs, secondary to reparative proliferation of the vascular smooth muscle within the wall of the surgically manipulated blood vessel. This process generally takes place over the course of 7-10 days. To evaluate whether an agent could prevent the growth factor mediated proliferation of smooth muscle within the artery, compound 1436 was evaluated in vitro for its effect on the proliferation of human coronary artery smooth muscle. Results for compound 1436 are shown in FIG. 13, and those for squalamine are shown in FIG. 14, with FIG. 15 being a composite logarithmic plot.

Entries after “also recorded” stand apart in the source; their conditions may differ. Some results are limits rather than exact numbers.

With `CC(C)CCC[C@@H](C)[C@H]1CC[C@H]2[C@@H]3CC[C@H]4C[C@@H](NCCCNCCCCNCCCN)CC[C@]4(C)[C@H]3CC[C@]12C` [Compound 353], in [1], the “vitelline capillary regression, potency in words” value is “no effect on the chick embryo capillary bed”. For the same compound, the “effect on melanoma growth, time dependence” value in [2] (FIG. 17A, less effect within first 12 hours) is on record as “most pronounced over 48 hours”. Moreover, the “mode of cell death” value in data set [2] (cells exposed to compound 353) is “apoptotic cell death has been induced”. Further, the “NHE5 versus NHE3 selectivity” value in data set [3] is listed as “inhibits NHE5 to a greater extent than NHE3”. Further, the minimal effective concentration in [4] worked out at 1.9 µg/mL. Besides, the “functional similarity in tadpole assay” value in [5] (Xenopus tadpole assay) is on record as “effects like those produced by compound 1436”.

As a reminder, the inhibition is the change of the read-out against control, counted positive when it falls. As to `CC(C)[C@@H](CC[C@@H](C)[C@H]1CC[C@H]2[C@@H]3[C@H](O)C[C@H]4C[C@@H](NCCCNCCCCNCCCN)CC[C@]4(C)[C@H]3CC[C@]12C)OS(=O)(=O)O` [Compound 1436], the inhibited in vitro result in data set [6], in data set [9], in [10], in data set [11], in data set [12] and in data set [15] was “INHIBITED” in each case. In addition, the inhibited in vitro result in [16], in [17], in [18], in [19] and in data set [20] was “INHIBITED” in each case. Moreover, the hyperglycemic response result in [7] is “caused hyperglycemia in mice”. Further, the “growth inhibition of mice” value in [8] (10 mg/kg QTD i.p., after 6 doses, about 1 month) is “almost completely inhibited”. The apparent health entry in data set [8] (C57B mice, 1-10 mg/kg QTD i.p.) is “all were active, normally proportioned, not-cachectic, and in excellent apparent clinical health”. For the same compound, in [8] (normal growing mice, i.p.), the “suppression of linear growth and weight gain” value is “suppresses both linear growth and weight gain in growing mice in a dose-dependent fashion”. In addition, the “vitelline capillary regression, potency in words” value in data set [1] is “about the same potency as squalamine”. Also, the “survival in L1210 leukemia mice” value in [13] is on record as “significant prolongation of life”. Further, in [14], the “effect of single agent versus combination” value is “Neither administration of squalamine at 15 mg/kg/day nor compound 1436 alone in a tolerable schedule could achieve this effect”. Besides, in data set [21], the inhibition at 10 µg/mL is > 75%. Also, the reversibility by noradrenaline result in data set [22] (40 μg noradrenaline at 30 minutes) is on record as “readily reversible by standard pharmacological practice”. Besides, the “duration of blood pressure effect followed without significant change” value in data set [22] (5 mg/kg i.v.) was 30 min. The “death / lethality time” value in data set [5] (10 μg/ml) is reported as “about 2 hours”. The “observed response in tadpole” value in data set [5] (10 μg/ml, stage 59-60 Xenopus) is “common vascular occlusive effect; also recorded: Gradual reduction in overall activity. Heart beat remained strong, suggesting nervous system depression; also recorded: Melanocytes over head and tail began to swell, first exhibiting visibly distinct nuclei, followed by rupture into fragments; also recorded: dramatic disruption of melanocytes over its head, trunk, and tail, along with depression of its nervous system; also recorded: No effects are observed on epithelial cell integrity, vascular flow, erythrocyte volume, tissue integrity, muscle fiber striation, or GI tract activity”. The “suppression of growth of human coronary artery smooth muscle” value in data set [23] is reported as “suppress in vitro the growth of human coronary artery smooth muscle”.
